Measurements reported in patent US10202372B2, “Trisubstituted pyrido[2,3-D]pyrimidines, methods for preparing same and therapeutic uses thereof” (CENTRE NATIONAL DE LA RECHERCHE SCIENTIFIQUE (C.N.R.S), priority 2012, dated 2019).
Counter-ions that a name gives are not always drawn.

Key:
CaCo2 = test: Toxicity test on cells, CaCo2; format: cell-based; details: Homo sapiens, Caco-2; 48 hours of treatment, Hoechst nuclei staining
Method: (§1) The compounds according to the invention were also tested on the cell lines HuH7, CaCo-2, HCT116, PC3, NCl, HacaT and Fibroblasts.
(§2) Operating Procedure: The cells were cultivated according to the ECACC recommendations. The toxicity test of the compounds on these cells was conducted as follows: 4×10^3 cells/well were sown in 96 wells. 24 hours after sowing the cells, the cells were exposed to increased concentrations of the compounds (0.1 μM-0.3 μM-0.9 μM-2.7 μM-8.3 μM-25 μM). After 48 hours of treatment, the cells were washed in PBS and bound in a cold ethanol/acetic acid (90/5) mixture for 20 minutes. Next, the nuclei were coloured with […] (Sigma). The acquisition of images and the analysis was carried out by means of a reader Cellomics ArrayScan VTI/HCS (Thermo Scientific).

PI3Kγ = PI3Kγ (Homo sapiens, UniProt P48736); test: PI3Kγ kinase activity, Adapta TR-FRET ADP detection; format: biochemical; details: p110γ catalytic subunit; read-out: Kinases IC50 PI3Kγ
Method: (§3) The activity of the PI3Kα kinase was evaluated by using a purified heterodimer (reference: PV4788 from Invitrogen) consisting of the α catalytic p110 subunit (PIK3CA) and the α regulation p85 subunit (PIK3R1). The assay of the kinase with the kit Adapta™ (reference: PV5099 from Invitrogen) is an enzymatic test based on the detection of ADP, produced during the reaction, by the fluorescence technique TR-FRET. It took place in a 384-well plate and was able to be divided into two phases: an enzymatic reaction phase, and a phase for detecting the ADP level.
(§4) During the enzymatic reaction phase, the following components were mixed in 10 μL of a same well: 2.5 μL of each dilution in series of inhibitors taken up in DMSO and then diluted to 1/25 in the reaction buffer (250 mM HEPES pH 7.5, 500 mM NaCl, 0.15 CHAPS, 5 mM EGTA, 15 mM MgCl2 and 1 mM DTT, ref.: PV5101 from Invitrogen), 2.5 μL of a solution containing PI3K at the optimum concentration (concentration defined according to the optimization step described in the operating procedure of the kit) diluted in the same reaction buffer, and finally, 5 μL of a solution containing 20 μM ATP and 100 μM PIP2 diluted in the reaction buffer. For each inhibitor concentration, the reaction was conducted in three copies (triplicate). The reaction was then incubated for 60 min at room temperature without any stirring in darkness.
(§5) During the phase for detecting ADP, 5 μL of a detection solution containing an anti-ADP antibody labeled with europium (6 nM), a tracer of the Alexa Fluor® 647 type coupled with ADP (30 nM), and EDTA (30 mM, for stopping the kinase reaction) were diluted in the dilution buffer (reference: PV3574 from Invitrogen). After 30 min of incubation at room temperature with stirring (40 rpm) in darkness, the 384-well plates were read in a plate reader Victor V configured for HTRF (Perkin Elmer). The excitation was produced at 340 nm and emission was measured at 665 nm and 615 nm. The inhibition curve was then plotted according to the emission ratio at 665 nm/615 nm versus the inhibitor concentration.
(§6) In order to obtain a linear response of the signal, a titration curve ATP-ADP, corresponding to the conversion % of ATP into ADP, was achieved by varying both of these species while keeping [ADP]+[ATP]=10 μM. The emission ratio at 665 nm/615 nm resulting from this (Y) was plotted versus the conversion % of ATP into ADP (X). The data of this curve were formatted according to a model with three hyperbolic parameters from the following equation: Y=C+A*(1−(X/(B+X))).
(§7) The software package GraphPad™ Prism® thus allows calculation of the parameters A, B and C. A conversion % corresponds to an emission ratio 665 nm/615 nm, this percentage is calculated by using the following equation: Conversion %=B*(C+A−Ratio)/(Ratio−C)
(§8) The three parameters A, B and C having been defined by the preceding equation, the conversion % was therefore able to be plotted versus the inhibitor concentration. The amount of inhibitor required for causing a 50% variation in the % conversion of ATP into ADP corresponds to the IC50 value of the inhibitor.
(§9) The activity of the kinase PI3Kγγ (PV4786 from Invitrogen) was evaluated on the p110γγ catalytic subunit (PI3KCG) and that of the kinase PI3Kδδ on the purified heterodimer (PV5273) respectively consisting of the δδ catalytic p110 subunit (PIK3CD) and the α regulation p85 subunit (PIK3R1) by following the same procedure.

Fibroblasts = test: Toxicity test on cells, Fibroblasts; format: cell-based; details: Fibroblast; 48 hours of treatment, Hoechst nuclei staining
Method: as §1, §2

PC3 = test: Toxicity test on cells, PC3; format: cell-based; details: Homo sapiens, PC-3; 48 hours of treatment, Hoechst nuclei staining
Method: as §1, §2

HUH7 = test: Toxicity test on cells, HUH7; format: cell-based; details: Homo sapiens, Huh-7; 48 hours of treatment, Hoechst nuclei staining
Method: as §1, §2

HacaT = test: Toxicity test on cells, HacaT; format: cell-based; details: Homo sapiens, 48 hours of treatment, Hoechst nuclei staining
Method: as §1, §2

MDA = test: Toxicity test on cells, MDA; format: cell-based; details: 48 hours of treatment, Hoechst nuclei staining
Method: [The procedure below names another cell line; the source lists this cell line under the same test.] as §1, §2

NCl = test: Toxicity test on cells, NCl; format: cell-based; details: 48 hours of treatment, Hoechst nuclei staining
Method: as §1, §2

PI3Kα = PI3Kα (Homo sapiens, UniProt P42336); test: PI3Kα kinase activity, Adapta TR-FRET ADP detection; format: biochemical; details: purified p110α/p85α heterodimer, triplicate; read-out: Kinases IC50 PI3Kα
Method: as §3, §4, §5, §6, §7, §8

HCT116 = test: Toxicity test on cells, HCT116; format: cell-based; details: Homo sapiens, HCT-116; 48 hours of treatment, Hoechst nuclei staining
Method: as §1, §2

PI3Kδ = PI3Kδ (Homo sapiens, UniProt O00329); test: PI3Kδ kinase activity, Adapta TR-FRET ADP detection; format: biochemical; details: purified p110δ/p85α heterodimer; read-out: Kinases IC50 PI3Kδ
Method: as §3, §4, §5, §6, §7, §8, §9

mTOR = mTOR (Homo sapiens, UniProt P42345); test: mTOR kinase activity, LANCE Ultra TR-FRET; format: biochemical; details: truncated mTOR protein, triplicate; read-out: Kinases IC50 mTOR
Method: The activity of the mTOR kinase was evaluated by using a purified truncated protein of the amino acids 1-1359 (reference: PV4753 from Invitrogen). The assay of the activity of the enzyme was carried out with the kit LANCE® Ultra which is an enzymatic test based on the detection of a phosphorylated peptide produced during the reaction, by using the fluorescence technique TR-FRET. It took place in a 384-well plate and was able to be divided into two phases: an enzymatic reaction phase and a phase for detecting the phosphorylated peptide.
During the enzymatic reaction phase, the following components were mixed in 10 μL of a same well: 5 μL of each dilution in series of inhibitors taken up in DMSO and then diluted to 1/25 in the reaction buffer (50 mM HEPES pH 7.5, 0.1% Tween-20, 1 mM EGTA, 10 mM MnCl2, 3 mM MgCl2 and 2 mM of DTT), 2.5 μL of a solution containing mTOR at the optimum concentration (concentration defined according to the optimization step described in the operating procedure of the kit) diluted in the same reaction buffer, and finally 2.5 μL of a solution containing 40 μM of ATP and 200 μM non-phosphorylated peptide diluted in the reaction buffer. For each inhibitor concentration, the reaction was conducted in three copies (triplicate). The reaction was then incubated for 120 min at room temperature without any stirring in darkness.
During the phase for detecting the phosphorylated peptide, 5 μL of an EDTA solution (32 mM) diluted in the dilution buffer (ref.: CR97-100 from Perkin Elmer) were injected into each well. After 5 min of incubation with stirring, 5 μL of a phosphorylated anti-peptide antibody solution labeled with europium (8 nM) and diluted in the same dilution buffer was added into each well. After 60 min of incubation at room temperature with stirring (40 rpm) in darkness, the 384-well plates were read in a plate reader Victor V configured for HTRF (Perkin Elmer). […] The inhibition curve was then plotted according to the fluorescence intensity value at 665 nm versus the inhibitor concentration.
The amount of inhibitor required for causing a 50% variation in the intensity of the signal corresponds to the IC50 value of the inhibitor.

PI3Kα, sequence (P42336 whole entry): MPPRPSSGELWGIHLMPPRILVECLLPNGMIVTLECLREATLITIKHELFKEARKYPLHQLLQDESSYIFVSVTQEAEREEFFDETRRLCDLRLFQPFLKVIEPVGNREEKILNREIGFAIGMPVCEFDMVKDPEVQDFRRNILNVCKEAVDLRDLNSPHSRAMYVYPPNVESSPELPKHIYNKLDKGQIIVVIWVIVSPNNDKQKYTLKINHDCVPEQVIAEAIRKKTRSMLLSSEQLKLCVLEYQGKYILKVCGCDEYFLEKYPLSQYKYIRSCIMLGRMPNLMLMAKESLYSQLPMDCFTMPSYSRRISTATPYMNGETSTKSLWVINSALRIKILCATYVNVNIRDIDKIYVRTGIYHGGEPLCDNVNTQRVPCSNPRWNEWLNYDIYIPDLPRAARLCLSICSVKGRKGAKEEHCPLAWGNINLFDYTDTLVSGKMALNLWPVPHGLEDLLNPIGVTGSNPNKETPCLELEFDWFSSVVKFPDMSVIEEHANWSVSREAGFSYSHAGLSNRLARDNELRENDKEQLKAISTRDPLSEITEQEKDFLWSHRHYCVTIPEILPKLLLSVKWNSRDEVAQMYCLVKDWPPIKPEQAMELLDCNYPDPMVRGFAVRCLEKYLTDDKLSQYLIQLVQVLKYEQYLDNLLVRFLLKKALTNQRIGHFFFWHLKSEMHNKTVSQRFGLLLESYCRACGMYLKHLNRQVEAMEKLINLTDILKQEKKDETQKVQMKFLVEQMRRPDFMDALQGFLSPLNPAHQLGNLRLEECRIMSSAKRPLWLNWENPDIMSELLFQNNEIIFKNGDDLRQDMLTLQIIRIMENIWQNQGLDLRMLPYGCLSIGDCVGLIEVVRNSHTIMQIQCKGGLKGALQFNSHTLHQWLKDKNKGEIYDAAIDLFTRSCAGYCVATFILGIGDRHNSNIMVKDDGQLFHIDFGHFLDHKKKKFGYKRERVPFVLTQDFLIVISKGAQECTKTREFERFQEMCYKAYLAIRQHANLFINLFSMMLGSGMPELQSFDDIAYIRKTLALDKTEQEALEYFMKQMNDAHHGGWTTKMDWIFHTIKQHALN
PI3Kα, sequence (P27986 whole entry partner): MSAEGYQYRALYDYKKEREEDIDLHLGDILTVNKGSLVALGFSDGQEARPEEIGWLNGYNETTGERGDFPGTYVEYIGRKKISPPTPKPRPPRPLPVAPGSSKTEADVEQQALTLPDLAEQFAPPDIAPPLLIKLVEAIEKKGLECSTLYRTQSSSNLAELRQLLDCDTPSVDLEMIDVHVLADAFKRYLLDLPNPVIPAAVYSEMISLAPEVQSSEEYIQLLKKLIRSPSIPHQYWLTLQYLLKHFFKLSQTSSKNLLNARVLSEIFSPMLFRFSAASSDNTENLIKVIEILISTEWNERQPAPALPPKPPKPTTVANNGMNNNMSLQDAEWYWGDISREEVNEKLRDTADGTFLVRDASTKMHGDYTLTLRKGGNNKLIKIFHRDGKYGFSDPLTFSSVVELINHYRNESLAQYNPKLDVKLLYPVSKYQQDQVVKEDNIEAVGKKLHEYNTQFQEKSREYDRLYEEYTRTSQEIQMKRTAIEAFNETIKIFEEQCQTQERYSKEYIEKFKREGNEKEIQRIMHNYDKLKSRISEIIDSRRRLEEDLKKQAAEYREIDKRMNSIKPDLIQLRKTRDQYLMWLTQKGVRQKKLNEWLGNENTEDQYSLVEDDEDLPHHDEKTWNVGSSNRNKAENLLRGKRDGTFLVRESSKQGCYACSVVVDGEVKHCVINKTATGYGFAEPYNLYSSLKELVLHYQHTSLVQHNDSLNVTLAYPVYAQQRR
PI3Kγ, sequence (P48736 whole entry): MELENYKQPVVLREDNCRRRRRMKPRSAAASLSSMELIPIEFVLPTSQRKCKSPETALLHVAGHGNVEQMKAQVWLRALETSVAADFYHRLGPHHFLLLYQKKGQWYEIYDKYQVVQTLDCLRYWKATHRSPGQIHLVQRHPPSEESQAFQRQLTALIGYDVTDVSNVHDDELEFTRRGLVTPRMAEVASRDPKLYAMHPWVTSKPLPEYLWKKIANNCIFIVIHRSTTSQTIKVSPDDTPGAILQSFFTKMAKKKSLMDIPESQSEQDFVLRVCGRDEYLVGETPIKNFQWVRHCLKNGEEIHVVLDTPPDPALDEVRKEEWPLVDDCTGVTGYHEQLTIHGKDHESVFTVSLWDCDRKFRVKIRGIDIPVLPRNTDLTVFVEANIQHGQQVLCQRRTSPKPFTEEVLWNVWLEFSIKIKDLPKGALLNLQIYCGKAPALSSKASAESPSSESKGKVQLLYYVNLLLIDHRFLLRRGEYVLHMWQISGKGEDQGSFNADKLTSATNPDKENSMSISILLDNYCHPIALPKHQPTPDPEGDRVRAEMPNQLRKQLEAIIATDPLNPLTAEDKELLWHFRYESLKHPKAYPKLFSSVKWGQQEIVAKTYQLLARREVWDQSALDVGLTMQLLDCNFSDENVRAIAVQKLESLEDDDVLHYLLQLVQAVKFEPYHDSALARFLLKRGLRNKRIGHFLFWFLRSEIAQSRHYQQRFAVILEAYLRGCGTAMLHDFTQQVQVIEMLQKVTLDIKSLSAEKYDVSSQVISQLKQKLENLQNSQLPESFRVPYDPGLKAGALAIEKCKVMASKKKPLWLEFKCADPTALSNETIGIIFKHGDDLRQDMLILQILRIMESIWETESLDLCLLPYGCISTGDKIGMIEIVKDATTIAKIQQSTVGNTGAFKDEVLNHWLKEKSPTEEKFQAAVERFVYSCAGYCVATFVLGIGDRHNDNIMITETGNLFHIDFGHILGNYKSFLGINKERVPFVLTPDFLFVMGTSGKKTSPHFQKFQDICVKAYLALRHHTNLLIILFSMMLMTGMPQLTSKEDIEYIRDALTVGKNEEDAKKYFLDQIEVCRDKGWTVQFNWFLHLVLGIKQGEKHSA
PI3Kδ, sequence (O00329 whole entry): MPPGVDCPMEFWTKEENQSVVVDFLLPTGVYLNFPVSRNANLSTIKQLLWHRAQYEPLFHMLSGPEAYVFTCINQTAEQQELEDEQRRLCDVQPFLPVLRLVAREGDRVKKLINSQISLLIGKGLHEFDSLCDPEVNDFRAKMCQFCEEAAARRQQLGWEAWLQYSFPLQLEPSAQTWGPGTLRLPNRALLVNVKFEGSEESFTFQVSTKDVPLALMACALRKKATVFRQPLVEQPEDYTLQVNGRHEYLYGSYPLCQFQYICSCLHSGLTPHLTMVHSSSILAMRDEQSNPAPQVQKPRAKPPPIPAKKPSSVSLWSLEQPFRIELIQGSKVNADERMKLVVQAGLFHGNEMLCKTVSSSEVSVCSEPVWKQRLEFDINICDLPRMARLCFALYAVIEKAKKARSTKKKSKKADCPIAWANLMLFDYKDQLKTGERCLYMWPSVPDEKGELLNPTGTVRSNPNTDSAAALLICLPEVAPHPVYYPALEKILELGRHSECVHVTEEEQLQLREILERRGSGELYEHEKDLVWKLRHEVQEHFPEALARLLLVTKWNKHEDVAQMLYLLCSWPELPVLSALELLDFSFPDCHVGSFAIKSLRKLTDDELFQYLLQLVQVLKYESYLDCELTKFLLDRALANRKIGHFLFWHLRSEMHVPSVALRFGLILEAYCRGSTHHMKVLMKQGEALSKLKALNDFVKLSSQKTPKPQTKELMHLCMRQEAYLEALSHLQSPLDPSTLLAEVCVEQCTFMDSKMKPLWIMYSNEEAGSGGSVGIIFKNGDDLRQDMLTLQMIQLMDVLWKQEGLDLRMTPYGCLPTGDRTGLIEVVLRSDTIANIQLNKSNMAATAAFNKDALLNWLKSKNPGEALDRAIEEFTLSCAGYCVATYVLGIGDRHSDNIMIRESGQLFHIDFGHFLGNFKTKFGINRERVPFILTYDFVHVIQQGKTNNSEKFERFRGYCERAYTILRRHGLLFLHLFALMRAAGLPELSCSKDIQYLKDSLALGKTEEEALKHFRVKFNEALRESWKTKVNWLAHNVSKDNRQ
PI3Kδ, sequence (P27986 whole entry partner): as the sequence (P27986 whole entry partner) above

| Structure (SMILES) | IC50 (PI3Kγ) [µM] | IC50 (PI3Kα) [µM] | IC50 (PI3Kδ) [µM] | IC50 (mTOR) [µM] | IC50 (CaCo2) [µM] | IC50 (Fibroblasts) [µM] | IC50 (PC3) [µM] | IC50 (HUH7) [µM] | IC50 (HacaT) [µM] | IC50 (MDA) [µM] | IC50 (NCl) [µM] | IC50 (HCT116) [µM] |
| --- | --- | --- | --- | --- | --- | --- | --- | --- | --- | --- | --- | --- |
| Oc1cccc(-c2nc(N3CCOCC3)c3ncc(CNC4CCCCC4)cc3n2)c1 [Compound 28, 3-(7-((cyclohexylamino)methyl)-4-morpholinopyrido[3,2-d]pyrimidin-2-yl)phenol hydrochloride] | 0.769 | 0.358 | 0.213 | 1.2 | 10 | > 25 | 25 | 15 | 20 | > 25 | 25 | 20 |
| [N-]=[N+]=NCc1cnc2c(N3CCOCC3)nc(-c3cccc(O)c3)nc2c1 [Compound 39, 3-(7-(azidomethyl)-4-morpholinopyrido[3,2-d]pyrimidin-2-yl)phenol] | 0.043 | 0.01 | 0.022 | 0.055 | 2 | > 25 | 3 | 4 | 4 | > 25 | 3 | 5 |
| Oc1cccc(-c2nc(N3CCOCC3)nc3cc(Cl)cnc23)c1 [Compound 51, 3-(7-chloro-2-morpholinopyrido[3,2-d]pyrimidin-4-yl)phenol] | 5 | 0.546 | 3.9 | 5.2 | 20 | > 25 | > 25 | > 25 | > 25 | > 25 | > 25 | > 25 |
| CN1CCN(Cc2cnc3c(N4CCOCC4)nc(-c4cccc(O)c4)nc3c2)CC1 [Compound 30, 3-(7-((4-methylpiperazin-1-yl)methyl)-4-morpholinopyrido[3,2-d]pyrimidin-2-yl)phenol hydrochloride] | 0.244 | 0.391 | 0.157 | 2.2 | 2 | > 25 | 7 | 5 | 8 | 20 | 15 | 10 |
| Oc1cccc(-c2nc(N3CCOCC3)c3ncc(CN4CCOCC4)cc3n2)c1 [Compound 29, 3-(4-morpholino-7-(morpholinomethyl)pyrido[3,2-d]pyrimidin-2-yl) phenol hydrochloride] | 1.3 | 0.043 | 0.041 | 0.286 | 3 | > 25 | 2 | > 25 | 8 | > 25 | > 25 | 5 |
| Oc1cccc(-c2nc(N3CCOCC3)c3ncc(Cl)cc3n2)c1 [Compound 6, 3-(7-Chloro-4-morpholinopyrido[3,2-d]pyrimidin-2-yl)phenol] | 0.273 | 0.012 | 0.01 | 0.183 | 8 | > 25 | > 25 | 0.8 | 4 | > 25 | > 25 | 9 |

Further lines, with some results ahead:

| IC50 (PI3Kγ) [µM] | IC50 (PI3Kα) [µM] | IC50 (PI3Kδ) [µM] | IC50 (mTOR) [µM] | Structure (SMILES) | IC50 (CaCo2) [µM] | IC50 (Fibroblasts) [µM] | IC50 (PC3) [µM] | IC50 (HUH7) [µM] | IC50 (HacaT) [µM] | IC50 (MDA) [µM] | IC50 (NCl) [µM] | IC50 (HCT116) [µM] |
| --- | --- | --- | --- | --- | --- | --- | --- | --- | --- | --- | --- | --- |
| – | 0.011 | – | – | Oc1cccc(-c2nc(N3CCOCC3)c3ncc(CN4CCN(C5CCCCC5)CC4)cc3n2)c1 [Compound 56, 3-{7-[(4-cyclohexylpiperazin-1-yl)methyl]-4-(morpholin-4-yl)pyrido[3,2-d]pyrimidin-2yl}phenol] | 6 | 10 | 8 | 6 | 8 | 12 | 11 | 7 |
| – | 0.003 | – | – | COCc1cn(Cc2cnc3c(N4CCOCC4)nc(-c4ccc(NC(=O)Nc5ccc(CO)cc5)cc4)nc3c2)nn1 [Compound 81, 1-[4-(hydroxymethyl)phenyl]-3-[4-(7-{[4-(methoxymethyl)-1H-1,2,3-triazol-1-yl]methyl}-4-(morpholin-4-yl)pyrido[3,2-d]pyrimidin-2-yl)phenyl]urea] | 2 | > 25 | 0.1 | 7 | 0.3 | 0.5 | 0.3 | 0.1 |
| 0.428 | 0.109 | 0.011 | 0.249 | Oc1cccc(-c2nc(N3CCOCC3)c3ncc(CNC4CC4)cc3n2)c1 [Compound 27, 3-(7-((cyclopropylamino)methyl)-4-morpholinopyrido[3,2-d]pyrimidin-2-yl)phenolhydrochloride] | 3 | > 25 | 2 | > 25 | > 25 | > 25 | > 25 | 5 |
